Test results taken from US11932630B2, “Heteroaryl aminopropanol derivatives” (NOVARTIS AG, priority 2021, dated 2024).
Where two headings read alike, the source gives them in different places.

Key:
human LTA4H = target: T1, human LTA4H (Homo sapiens, UniProt P09960); assay: Human LTA4H enzyme assay (Arg-AMC substrate); type: biochemical; conditions: Arg-AMC 600 μM, 9 nM human LTA4H, 15 min pre-incubation; mean values of at least 3 measurements; read-out: ArgAMC IC50
T1 sequence (P09960 1-611): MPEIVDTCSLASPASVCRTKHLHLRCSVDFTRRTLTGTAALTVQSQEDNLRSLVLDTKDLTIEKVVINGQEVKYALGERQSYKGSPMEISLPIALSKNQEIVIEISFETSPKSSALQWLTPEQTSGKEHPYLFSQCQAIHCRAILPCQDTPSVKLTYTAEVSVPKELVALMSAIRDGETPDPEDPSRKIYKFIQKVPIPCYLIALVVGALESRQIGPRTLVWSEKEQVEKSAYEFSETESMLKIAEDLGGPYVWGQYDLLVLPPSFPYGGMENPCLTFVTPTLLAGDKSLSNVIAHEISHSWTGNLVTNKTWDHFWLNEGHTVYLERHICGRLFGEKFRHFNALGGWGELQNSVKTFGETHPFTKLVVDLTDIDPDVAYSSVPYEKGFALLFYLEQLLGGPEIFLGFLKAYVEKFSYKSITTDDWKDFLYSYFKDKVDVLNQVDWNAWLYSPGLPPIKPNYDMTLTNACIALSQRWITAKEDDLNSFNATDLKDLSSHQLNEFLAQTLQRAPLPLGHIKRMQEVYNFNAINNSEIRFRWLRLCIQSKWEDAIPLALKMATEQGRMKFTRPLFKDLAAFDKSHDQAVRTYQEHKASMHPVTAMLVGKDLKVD
Experimental: a) Human LTA4H Enzyme Assay:
[…] (LTA4H) catalyzes the vinylogous hydrolysis of the epoxide, leukotriene A4 (LTA4) into the pro-inflammatory mediator LTB4.
For compound testing, compounds are delivered as 10 mM stock solutions in 90% DMSO (10% water) in matrix tubes. […] A final substrate concentration of 600 μM, which is around the KM value of Arg-AMC, at a final enzyme concentration of 9 nM is chosen. Upon addition of the substrate, the plate is immediately placed in a fluorescence reader and the fluorescence is measured every 10 minutes for 60 minutes using the filter setting λ excitation=380 nm and A emission=460 nm. […] Raw data is converted to rate (moles per minute) using the AMC calibration curve calculated from the AMC standards. The data is analyzed in GraphPad Prism (GraphPad software Inc.) using non-linear regression to determine IC50 values of LTA4H inhibitors.

[1] = test system: LTB4 biosynthesis in human whole blood; assay: Human whole blood assay (hWB), inhibition of LTB4 biosynthesis; type: cell-based; conditions: read-out: hWB IC50
Experimental: b) Human Whole Blood Assay:
Compounds are tested in a human whole blood assay (hWB) to test their ability to inhibit LTB4 biosynthesis in a human cellular system. To this end, fresh blood is collected in heparinized vacutainers by venipuncture from volunteers. Blood is diluted 1:3 with RPM (Roswell Park Memorial Institute) medium and aliquots of 200 μL are transferred to 96-well round bottom cell culture plates. For compound testing, compounds are delivered as 10 mM stock solutions in 90% DMSO in matrix tubes. […] 4 μL of compound dilution or vehicle is added to 200 μL of blood and incubated for 4 hours at 37° C. in a humidified incubator. […] Incubation is terminated by centrifugation at 300 g for 10 min at 22° C. Plasma supernatant is taken and transferred to a 96 well plate for eicosanoid determination by ELISA (Assay designs) according to the manufacturer's protocol after 1:20 dilution in assay buffer. The data is analyzed in GraphPad Prism (GraphPad software Inc.) using non-linear regression to determine IC50 values of LTA4H inhibitors.

Hygroscopicity by DVS = type: physicochemical; conditions: for Hygroscopicity (DVS), moisture / water vapor absorbed: at 95% RH
[2] = Loss on drying by TGA after storage at 92 % RH; type: physicochemical; conditions: heating rate 10 K/min, % @ °C, temperature in the line below (100, 230, 170, 195 °C)
Experimental: Thermoaravimetric Analysis (TGA):
TGA curves were obtained using a TA-instrument Q5000. 0.5-2 mg of sample was placed into an open aluminum pan. The TGA curve was measured at 10° C./min between 30-300° C. The LoD (Loss of drying) was calculated between 30° C. and 100° C. or 150° C. The weight loss is plotted against the measured sample temperature. Temperatures are reported in degrees Celsius (° C.) and weight loss in %.

[3] = human blood diluted 1:3, 4 hours with compound, 10 μg/ml A23187 for 15 min, eicosanoid by ELISA

IC50 (human LTA4H)	IC50 [1, 3]	Structure (SMILES)	further results
3.3 nM	214 nM	N[C@H](CO)Cn1nnc(-c2ccc(Oc3ccc(Cl)cc3)cc2)n1 [Example 27, (S)-2-Amino-3-(5-(4-(4-chlorophenoxy)phenyl)-2H-tetrazol-2-yl)propan-1-ol]	
6.2 nM	504 nM	N[C@H](CO)Cn1nnc(-c2ccc(Oc3ccc(C4CC4)cn3)cc2)n1 [Example 28, (S)-2-Amino-3-(5-(4-((5-cyclopropylpyridin-2-yl)oxy)phenyl)-2H-tetrazol-2-yl)propan-1-ol]	
2.4 nM	290 nM	N[C@H](CO)Cn1nnc(-c2ccc(Oc3ccc(Br)cn3)cc2)n1 [Example 33, (S)-2-Amino-3-(5-(4-((5-bromopyridin-2-yl)oxy)phenyl)-2H-tetrazol-2-yl)propan-1-ol]	
2.6 nM	47 nM	N[C@H](CO)Cn1ccc(-c2ccc(Oc3ncc(-c4cc[nH]n4)cc3F)cc2)n1 [Example 37, (S)-2-amino-3-(3-(4-((3-fluoro-5-(1H-pyrazol-5-yl)pyridin-2-yl)oxy)phenyl)-1H-pyrazol-1-yl)propan-1-ol]	
2.6 nM	62 nM	N[C@H](CO)Cc1nnn(-c2ccc(Oc3ncc(-c4ccn[nH]4)cc3F)cc2)n1 [Example 40, (S)-2-amino-(2-(4-((3-fluoro-5-(1H-pyrazol-5-yl)pyridin-2-yl)oxy)phenyl)-2H-tetrazol-5-yl)propan-1-ol]	
		N[C@H](CO)Cn1ccc(-c2ccc(Oc3ncc(-c4cc[nH]n4)cc3F)cc2)n1 [Example 42, (S)-2-amino-3-(3-(4-((3-fluoro-5-(1H-pyrazol-3-yl)pyridin-2-yl)oxy)phenyl)-1H-pyrazol-1-yl)propan-1-ol]	Hygroscopicity (DVS), moisture reversibly absorbed (Hygroscopicity by DVS; above 70% RH, transforming into a hydrated form): 3%; Hygroscopicity (DVS), moisture / water vapor absorbed (Hygroscopicity by DVS): 2.97 @ 95%; Loss on drying by TGA, After 1 day at 92 % RH ([2]; listed as Ex 42): 2.46 @ %
		N[C@H](CO)Cn1ccc(-c2ccc(Oc3ncc(-c4ccn[nH]4)cc3F)cc2)n1 [Example 43, (S)-2-amino-3-(3-(4-((3-fluoro-5-(1H-pyrazol-5-yl)pyridin-2-yl)oxy)phenyl)-1H-pyrazol-1-yl)propan-1-ol]	Hygroscopicity (DVS), moisture / water vapor absorbed (Hygroscopicity by DVS; listed as hydrochloride salt (Form E)): 0.6%; Loss on drying by TGA, After 1 day at 92 % RH ([2]; listed as Ex 43): 0.30 @ %
		N[C@H](CO)Cn1ccc(-c2ccc(Oc3ncc(-c4ccn[nH]4)cc3F)cc2)n1 [Example 44, (S)-2-amino-3-(3-(4-((3-fluoro-5-(1H-pyrazol-3-yl)pyridin-2-yl)oxy)phenyl)-1H-pyrazol-1-yl)propan-1-ol]	Hygroscopicity (DVS), moisture / water vapor absorbed (Hygroscopicity by DVS): 0.32% @ 95% RH; Hygroscopicity (DVS), moisture / water vapor absorbed (Hygroscopicity by DVS; listed as hippuric acid salt (Form B)): about 0.3%; Loss on drying by TGA, After 1 day at 92 % RH ([2]; listed as Ex 44): 0.21 @ %
		N[C@H](CO)Cn1ccc(-c2ccc(Oc3ncc(-c4ccn[nH]4)cc3F)cc2)n1 [Example 45, (S)-2-amino-3-(3-(4-((3-fluoro-5-(1H-pyrazol-5-yl)pyridin-2-yl)oxy)phenyl)-1H-pyrazol-1-yl)propan-1-ol]	Hygroscopicity (DVS), moisture / water vapor absorbed (Hygroscopicity by DVS; listed as Modification A): about 0.5%; Hygroscopicity (DVS), moisture / water vapor absorbed (Hygroscopicity by DVS; listed as hippurate salt (Form A)): 0.5%
		N[C@H](CO)Cn1ccc(-c2ccc(Oc3ncc(-c4cc[nH]n4)cc3F)cc2)n1 [Example 46, (S)-2-amino-3-(3-(4-((3-fluoro-5-(1H-pyrazol-3-yl)pyridin-2-yl)oxy)phenyl)-1H-pyrazol-1-yl)propan-1-ol]	Loss on drying by TGA, After 1 day at 92 % RH ([2]; listed as Ex 46): 0.96 @ %

Structure (SMILES)	IC50 (human LTA4H)	IC50 [1, 3]	further results
N[C@@H](CO)Cn1nnc(-c2ccc(Oc3ccc(Cl)cn3)cc2)n1 [Example 31, (R)-2-Amino-3-(5-(4-((5-chloropyridin-2-yl)oxy)phenyl)-2H-tetrazol-2-yl)propan-1-ol]	4.5 nM	179 nM	
N[C@H](CO)Cn1nnc(-c2ccc(Oc3ccc(Cl)cn3)cc2)n1 [Example 34, (S)-2-Amino-3-(5-(4-((5-chloropyridin-2-yl)oxy)phenyl)-2H-tetrazol-2-yl)propan-1-ol]	4 nM	800 nM	
N[C@H](CO)Cn1ccc(-c2ccc(Oc3ccc(-c4ccn[nH]4)cn3)cc2)n1 [Example 36]	2.9 nM		IC50 ([1]; Homo sapiens): 60 nM
